{"source": "patent US7135615B2", "about": "“Chromosome doubling method” (The Curators of the University of Missouri, priority 2001, dated 2006)", "key": {"[1]": {"tested_on": "flowers of grasses; maize haploids", "test": "nitrous oxide procedure, general statement of doubling and selfing rates", "type": "in vivo, maize (Zea mays L.)", "description": "The technique results from studies carried out for the development of a high-yield technique for chromosome doubling in grasses and particularly, in maize. The new procedure induces doubled sectors on the flowers of grasses at a high rate (50–100%) without injuring seedlings. […] With the technique, large number of plants (1000/day) can be treated by one person. In maize haploids, doubled sectors are induced both on the tassels and ears and self pollination is possible at 30–90% level, whereas no reliable procedure for chromosome doubling had previously been available."}, "haploid seedlings": {"tested_on": "haploid seedlings", "test": "survival of haploid seedlings treated with nitrous oxide gas (all experiments)", "type": "in vivo, maize (Zea mays L.)", "details": "450 haploid seedlings treated", "description": "The germinated seeds were transferred to small plastic pots filled with ProMix, a peat moss based growing medium (Hummert, St. Louis, Miss.). The seedlings were grown in a greenhouse for one to four weeks. Stock 6 induced 1–5 putative haploid kernels per ear (purple kernel with white embryo or yellow kernel with purple embryo) on all genotypes. A total of 715 putative haploid kernels were planted for the experiments. Most of them (94%) were determined to be haploid from their morphology and high sterility. The remaining 4.7% were misclassified F1s, 1.1% were hypoploids, and 0.3% (one plant induced from B73 and one plant from Oh43×Mol7) were spontaneous doubled haploids. […] In a second study, fourteen out of 50 treated Oh43 haploid seedlings died from fungus attack."}, "[2]": {"tested_on": "maize haploid seedlings of origin B55", "test": "doubled haploid production trial, B55 haploids (Example 4)", "details": "for Ear: Plants with kernels after selfing % / Tassel: No. of fertile anthers extruded/tassel / Tassel: No. of fertile sectors/tassel / Tassel: Plants with fertile sectors % / Ear: Plants with kernels after selfing No. / Tassel: Plants with fertile sectors No. / No. of plants Survived / Ear: No. of kernels produced/ear: B55 haploids, 600 kPa, 2 days; for Ear: No. of kernels produced/ear: selfed", "description": "Ten to nineteen plants were treated for each plot. Self pollinations were conducted on these treated haploids if there were fertile sectors on the tassel. Pollen grains were collected carefully on a sheet of paper and transferred to the silks repeatedly. Silks and husks were cut back prior to pollination in order to permit maximum seed set. The numbers of fertile tassel and ear sectors, as well as the numbers of anthers and selfed kernels were recorded. Statistical analyses were as described above."}}, "note": "Several values for one entry are separate records, joined by “and”; a condition that tells them apart may be missing. Equal values may be shown once. Marks after values point to notes of the source that are not given here."}
{"smiles": "[N-]=[N+]=O", "note": "[nitrous oxide gas, nitrous oxide]", "values": [{"measurement": "rate of doubled sectors induced on the flowers of grasses", "setting": "[1]; grasses, without injuring seedlings", "value": "50–100%"}, {"measurement": "level at which self pollination is possible", "setting": "[1]; maize haploids, doubled sectors on both tassels and ears", "value": "30–90%"}, {"measurement": "survived the treatment", "setting": "haploid seedlings", "value": 92, "unit": "%"}, {"measurement": "successful self pollination rate", "setting": "[2]; B55 haploids after nitrous oxide treatment", "value": "90–100%"}, {"measurement": "Ear: Plants with kernels after selfing %", "setting": "[2]; 5 leaf stage", "value": "60** %"}, {"measurement": "Tassel: No. of fertile anthers extruded/tassel", "setting": "[2]; 5 leaf stage", "value": "161.3** /tassel"}, {"measurement": "Tassel: No. of fertile sectors/tassel", "setting": "[2]; 5 leaf stage", "value": "1.6 /tassel"}, {"measurement": "Tassel: Plants with fertile sectors %", "setting": "[2]; 5 leaf stage", "value": "90** %"}, {"measurement": "Ear: Plants with kernels after selfing No.", "setting": "[2]; 5 leaf stage, 10 survived", "value": 6}, {"measurement": "Tassel: Plants with fertile sectors No.", "setting": "[2]; 5 leaf stage, 10 survived", "value": 9}, {"measurement": "No. of plants Survived", "setting": "[2]; 5 leaf stage, 10 treated", "value": 10}, {"measurement": "Ear: No. of kernels produced/ear", "setting": "[2]; 5 leaf stage", "value": "31.5* /ear"}, {"measurement": "Ear: Plants with kernels after selfing %", "setting": "[2]; 6 leaf stage", "value": 90, "unit": "%"}, {"measurement": "Tassel: No. of fertile anthers extruded/tassel", "setting": "[2]; 6 leaf stage", "value": "380 /tassel and 380.1** /tassel"}, {"measurement": "Tassel: No. of fertile sectors/tassel", "setting": "[2]; 6 leaf stage", "value": "4.5** /tassel"}, {"measurement": "Tassel: Plants with fertile sectors %", "setting": "[2]; 6 leaf stage", "value": "100** %"}, {"measurement": "Ear: Plants with kernels after selfing No.", "setting": "[2]; 6 leaf stage, 10 survived", "value": 9}, {"measurement": "Tassel: Plants with fertile sectors No.", "setting": "[2]; 6 leaf stage, 10 survived", "value": 10}, {"measurement": "No. of plants Survived", "setting": "[2]; 6 leaf stage, 10 treated", "value": 10}, {"measurement": "Ear: No. of kernels produced/ear", "setting": "[2]; 6 leaf stage", "value": "61.6 /ear"}, {"measurement": "Ear: Plants with kernels after selfing %", "setting": "[2]; 7 leaf stage", "value": "78** %"}, {"measurement": "Tassel: No. of fertile anthers extruded/tassel", "setting": "[2]; 7 leaf stage", "value": "401.3** /tassel"}, {"measurement": "Tassel: No. of fertile sectors/tassel", "setting": "[2]; 7 leaf stage", "value": "10.6** /tassel"}, {"measurement": "Tassel: Plants with fertile sectors %", "setting": "[2]; 7 leaf stage", "value": "100** %"}, {"measurement": "Ear: Plants with kernels after selfing No.", "setting": "[2]; 7 leaf stage, 9 survived", "value": 7}, {"measurement": "Tassel: Plants with fertile sectors No.", "setting": "[2]; 7 leaf stage, 9 survived", "value": 9}, {"measurement": "No. of plants Survived", "setting": "[2]; 7 leaf stage, 9 treated", "value": 9}, {"measurement": "Ear: No. of kernels produced/ear", "setting": "[2]; 7 leaf stage", "value": "65.6** /ear"}]}
